Counter-ions that a name gives are not always drawn.
Assays:
RAW264.7 cells = assay: Macrophage viability (MTT, Live/Dead Calcein AM/EthD-III); type: cell-based; conditions: Mus musculus, RAW264.7 cells incubated 24 h
Protocol: In vitro cellular loading studies. RAW264.7 (murine macrophages) and U87MG (human glioblastoma) were purchased from ATCC. RAW264.7 cells were cultured in RPMI1640 medium (Corning, USA) supplemented with 10% FBS (Corning, USA) and 1% penicillin-streptomycin (MediaTech, USA). During the nanoparticle loading stage, FBS-free RPMI1640 medium was used for culturing. U87MG cells were grown in DMEM medium (Corning, USA) supplemented with 10% FBS, 1% non-essential amino acids, and 1% penicillin-streptomycin. These two cell lines were incubated under 37° C. and 5% CO2 in a humid chamber. […] To determine the amount of Dox loaded into cells, DSN-laden cells were counted and then lysed by sonication in PBS (pH 5.0). The amounts of released Dox was measured by spectroscopic analysis. The Dox content on a per cell basis was calculated compared with macrophages without nanoparticle loading. […] To evaluate the impact of loaded DSNs on macrophages, the viability change was first assessed at different time points post nanoparticle loading by 3-(4,5-dimethythiazon-2-yl)-2,5-diphenyl tetrazolium bromide (MTT) assay or Live/Dead Cytotoxicity assay and the results were compared with normal macrophages. […]

U87MG tumors = assay: In vivo therapy study; design: species or system nude mice
Protocol: Small animal models. For imaging and therapy studies, a U87MG subcutaneous mouse model was used. The animal model was established by subcutaneously inoculating 1 million U87MG cells onto the right hind leg or the right flank (for PET imaging only) of a 5-6 week old athymic female nude mice (Harlan). For toxicity studies, normal 5-6 week old balb/c mice (Envigo laboratories). All the animal studied were performed according to a protocol approved by the Institutional Animal Care and Use Committee (IACUC) of University of Georgia.
In vivo therapy study. Treatments started when tumor size reached 100-150 mm^3. 25 mice were randomly divided into 5 groups and were i.v. injected with PBS, free Dox, DSN-52 in PBS, MF cells, and DSN-MF cells on Day 0. Dox, DSN-52, and DSN-MF were injected at 3 mg Dox kg^−1, and 4 million cells were injected into the mice in MF and DSN-MF groups. The body weight and tumor volume of each mouse were measured every other day for 2 weeks. The tumor volume was calculated by the following equation: tumor volume=0.5×length×(width)^2, where length≥width. Mice were euthanized once the tumor volume was above 1,700 mm^3.

Toxicity studies = type: in vivo, balb/c mice
Protocol: Small animal models. For imaging and therapy studies, a U87MG subcutaneous mouse model was used. […] For toxicity studies, normal 5-6 week old balb/c mice (Envigo laboratories). All the animal studied were performed according to a protocol approved by the Institutional Animal Care and Use Committee (IACUC) of University of Georgia. Toxicity studies. Fifteen normal balb/c mice were randomly divided into 5 groups and received regimens specified in the in vivo therapy study section. The body weight and anal temperature of each mouse were measured daily at the same time (starting from 6 days before injection through Day 6). On Day 7, all mice were euthanized and the whole blood was collected. Part of the blood samples were used for a complete blood count (CBC) test. […] All tests were conducted by following the vendors' protocols. CRP and TNF-α kits were purchased from RayBiotech, ALT (MAK055) and AST (MAK052) kits from Sigma-Aldrich, and BUN from Arbor Assays. Each assay was repeated at least twice.

COc1cccc2c1C(=O)c1c(O)c3c(c(O)c1C2=O)C[C@@](O)(C(=O)CO)C[C@@H]3O[C@H]1C[C@H](N)[C@H](O)[C@H](C)O1 [Dox, doxorubicin hydrochloride salt]
IC50 (RAW264.7 cells): 1.5 mg/L | tumor growth inhibition (TGI) rate (U87MG tumors; Day 14, relative to the PBS group): 24.84% | median survival (U87MG tumors; one i.v. dose on Day 0): 16 days | average tumor volume on Day 14 (U87MG tumors; one i.v. dose on Day 0, 3 mg Dox kg^−1 and/or ˜4×10^6 cells per mouse): 1328.6 mm^3 | Bands (Toxicity studies; CBC, Day 7): 12% | HCT (Toxicity studies; CBC, Day 7): 48.9% | HGB (Toxicity studies; CBC, Day 7): 44.0 g/dL | Lymphs (Toxicity studies; CBC, Day 7): 82% | MCH (Toxicity studies; CBC, Day 7): 31.6 pg | MCHC (Toxicity studies; CBC, Day 7): 62 g/dL | MCV (Toxicity studies; CBC, Day 7): 15.4 fL | Monos (Toxicity studies; CBC, Day 7): 6% | RBC (Toxicity studies; CBC, Day 7): 1.39e+07 µL⁻¹ | Segs (Toxicity studies; CBC, Day 7): 0% | WBC (Toxicity studies; CBC, Day 7): 13490 µL⁻¹ | complete blood count (CBC) analysis, overall (Toxicity studies; Day 7): abnormalities | body weight change (Toxicity studies; normal balb/c mice, Day 2, hydrochloride salt): small degree of body weight loss

From patent publication US20210393538A1, “SILICA-BASED DRUG NANOCAPSULES” (priority 2018, published 2021)
